From patent US20080009418A1, “Selective Inhibitors” (Alchemia LTD., priority 2004, published 2008)

Key:
[1] = target: T1, Human opioid (ORL1) (Homo sapiens, UniProt P41146); experiment: Radioligand binding, human opioid ORL1 membranes, FlashPlate, [125I]-Nociceptin; settings: compound at 10 μM, [125I]-Nociceptin; for A10: inhibition of radioligand binding: human ORL1 membranes
T1 construct: purchased Perkin Elmer Biosignal
In short: (§1)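 Cloned human receptor membranes were coated onto FlashPlate wells and incubated with radioligand and compound (added from a 0.5 mM DMSO daughter plate) for 1 hour at room temperature in the dark. Scintillation counting gave percent inhibition, with DMSO defining total and reference ligand defining non-specific binding.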

[2] = target: T2, Human κ-Opioid (KOP) (Homo sapiens, UniProt P41145); experiment: Radioligand binding, human κ-opioid (KOP) membranes, filtration, [3H]-Diprenorphine; settings: compound at 10 μM, [3H]-Diprenorphine; for A2: inhibition of radioligand binding: human KOP membranes
T2 construct: purchased Perkin Elmer Biosignal
T2 sequence (P41145 whole entry): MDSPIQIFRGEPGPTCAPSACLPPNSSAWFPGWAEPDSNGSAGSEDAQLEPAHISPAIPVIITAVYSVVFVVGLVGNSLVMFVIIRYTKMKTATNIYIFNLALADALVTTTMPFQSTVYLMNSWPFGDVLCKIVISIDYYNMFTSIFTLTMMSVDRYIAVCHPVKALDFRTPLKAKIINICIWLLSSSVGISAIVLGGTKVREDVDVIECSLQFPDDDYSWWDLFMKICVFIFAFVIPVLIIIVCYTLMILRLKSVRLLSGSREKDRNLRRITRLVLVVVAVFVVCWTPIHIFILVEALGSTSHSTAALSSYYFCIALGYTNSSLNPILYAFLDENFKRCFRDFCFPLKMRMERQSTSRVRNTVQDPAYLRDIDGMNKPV
In short: (§2)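 Filtration binding on cloned human receptor membranes (1 Unit/well), [125I]-Substance P for NK1 and [3H]-Diprenorphine for KOP, 1 h at room temperature. Filters PEI-presoaked, washed with cold 50 mM Tris-HCl pH 7.4, counted by scintillation; percent inhibition calculated, reference ligand defining non-specific binding.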

[3] = target: T3, Human Melanocortin (MC4) (Homo sapiens, UniProt P32245); experiment: Radioligand binding, human melanocortin MC4 membranes, FlashPlate, [125I]-NDP-αMSH; settings: compound at 10 μM, [125I]-NDP-αMSH; for A4: inhibition of radioligand binding: human MC4 membranes
T3 construct: purchased Perkin Elmer Biosignal
T3 sequence (P32245 whole entry): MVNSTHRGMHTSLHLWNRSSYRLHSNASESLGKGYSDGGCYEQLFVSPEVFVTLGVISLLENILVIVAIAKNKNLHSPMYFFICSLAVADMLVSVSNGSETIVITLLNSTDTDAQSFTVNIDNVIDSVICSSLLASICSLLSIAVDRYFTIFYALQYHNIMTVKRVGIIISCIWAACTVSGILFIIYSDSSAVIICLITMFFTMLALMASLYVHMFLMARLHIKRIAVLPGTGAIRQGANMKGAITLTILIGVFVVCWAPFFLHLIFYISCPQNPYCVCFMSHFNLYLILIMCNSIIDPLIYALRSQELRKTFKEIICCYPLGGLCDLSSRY
In short: as §1

[4] = target: T4, Human melanocortin (MC5) (Homo sapiens, UniProt P33032); experiment: Radioligand binding, human melanocortin MC5 membranes, FlashPlate, [125I]-NDP-αMSH; settings: compound at 10 μM, [125I]-NDP-αMSH; for A5: inhibition of radioligand binding: human MC5 membranes
T4 construct: purchased Perkin Elmer Biosignal
T4 sequence (P33032 whole entry): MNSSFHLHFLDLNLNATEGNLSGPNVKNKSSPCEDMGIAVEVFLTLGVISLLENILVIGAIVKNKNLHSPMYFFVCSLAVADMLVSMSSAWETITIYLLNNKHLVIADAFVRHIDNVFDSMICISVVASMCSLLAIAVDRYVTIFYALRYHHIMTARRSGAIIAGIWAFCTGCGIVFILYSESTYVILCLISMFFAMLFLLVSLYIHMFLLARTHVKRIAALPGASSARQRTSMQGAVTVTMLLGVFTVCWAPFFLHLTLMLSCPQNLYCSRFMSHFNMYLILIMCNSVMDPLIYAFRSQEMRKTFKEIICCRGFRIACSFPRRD
In short: as §1

[5] = target: T5, Human Melanocortin (MC3) (Homo sapiens, UniProt P41968); experiment: Radioligand binding, human melanocortin MC3 membranes, FlashPlate, [125I]-NDP-αMSH; settings: compound at 10 μM, [125I]-NDP-αMSH; for A3: inhibition of radioligand binding: human MC3 membranes
T5 construct: purchased Perkin Elmer Biosignal
T5 sequence (P41968 whole entry): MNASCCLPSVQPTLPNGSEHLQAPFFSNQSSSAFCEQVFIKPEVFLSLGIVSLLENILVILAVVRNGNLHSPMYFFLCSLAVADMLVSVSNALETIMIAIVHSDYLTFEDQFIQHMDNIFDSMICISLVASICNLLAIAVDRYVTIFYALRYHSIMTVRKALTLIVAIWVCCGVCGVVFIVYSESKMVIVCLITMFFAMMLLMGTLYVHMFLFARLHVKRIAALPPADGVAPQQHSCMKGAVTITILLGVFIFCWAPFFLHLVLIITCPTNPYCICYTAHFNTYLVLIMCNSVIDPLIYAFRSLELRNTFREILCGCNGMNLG
In short: as §1

[6] = target: T6, Human neuropeptide Y (NPY-Y1) (Homo sapiens, UniProt P25929); experiment: Radioligand binding, human neuropeptide Y NPY-Y1 membranes, FlashPlate, [125I]-PYY; settings: compound at 10 μM, [125I]-PYY; for A9: inhibition of radioligand binding: human NPY-Y1 membranes
T6 construct: purchased Perkin Elmer Biosignal
T6 sequence (P25929 1-384): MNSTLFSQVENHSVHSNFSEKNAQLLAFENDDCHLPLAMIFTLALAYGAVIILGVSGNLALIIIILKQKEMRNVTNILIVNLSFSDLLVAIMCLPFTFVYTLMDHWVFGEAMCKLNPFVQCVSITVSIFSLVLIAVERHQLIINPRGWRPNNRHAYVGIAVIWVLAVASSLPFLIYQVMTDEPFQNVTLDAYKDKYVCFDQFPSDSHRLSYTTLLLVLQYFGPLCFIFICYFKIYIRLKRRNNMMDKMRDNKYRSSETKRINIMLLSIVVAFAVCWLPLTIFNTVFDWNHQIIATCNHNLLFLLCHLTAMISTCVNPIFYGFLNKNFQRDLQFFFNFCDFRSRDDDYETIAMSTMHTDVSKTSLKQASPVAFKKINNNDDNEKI
In short: as §1

[7] = target: T7, Human melanin-concentrating hormone (MCH1) (Homo sapiens, UniProt Q99705); experiment: Radioligand binding, human melanin-concentrating hormone MCH1 membranes, FlashPlate, [125I]-S36057; settings: compound at 10 μM; for A6: inhibition of radioligand binding: [125I]-S36057, human MCH1 membranes
T7 construct: purchased Perkin Elmer Biosignal
T7 sequence (Q99705 whole entry): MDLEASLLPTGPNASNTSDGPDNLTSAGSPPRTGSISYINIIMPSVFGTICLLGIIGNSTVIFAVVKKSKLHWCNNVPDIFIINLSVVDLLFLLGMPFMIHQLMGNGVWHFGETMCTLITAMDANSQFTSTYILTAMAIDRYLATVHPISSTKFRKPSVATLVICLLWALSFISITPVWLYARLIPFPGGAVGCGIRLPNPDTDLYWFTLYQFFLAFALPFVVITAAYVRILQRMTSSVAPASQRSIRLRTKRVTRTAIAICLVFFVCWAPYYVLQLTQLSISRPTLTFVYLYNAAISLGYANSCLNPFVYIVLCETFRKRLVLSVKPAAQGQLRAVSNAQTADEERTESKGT
In short: as §1

[8] = target: T8, Human neurokinin (NK1) (Homo sapiens, UniProt P25103); experiment: Radioligand binding, human neurokinin NK1 membranes, filtration, [125I]-Substance P; settings: compound at 10 μM, [125I]-Substance P; for A8: inhibition of radioligand binding: human NK1 membranes
T8 construct: purchased Perkin Elmer Biosignal
T8 sequence (P25103 whole entry): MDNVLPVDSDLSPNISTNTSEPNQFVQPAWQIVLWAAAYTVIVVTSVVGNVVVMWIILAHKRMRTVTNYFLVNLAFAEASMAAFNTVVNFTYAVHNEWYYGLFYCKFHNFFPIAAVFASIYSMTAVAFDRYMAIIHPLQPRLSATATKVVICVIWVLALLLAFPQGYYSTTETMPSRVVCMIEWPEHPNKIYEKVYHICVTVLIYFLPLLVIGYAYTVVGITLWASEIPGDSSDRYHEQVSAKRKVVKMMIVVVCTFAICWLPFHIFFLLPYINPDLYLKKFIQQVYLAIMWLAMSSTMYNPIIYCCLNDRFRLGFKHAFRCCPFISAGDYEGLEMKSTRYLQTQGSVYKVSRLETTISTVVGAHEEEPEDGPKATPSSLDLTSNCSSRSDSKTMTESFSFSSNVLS
In short: as §2

[9] = target: T9, Human δ-opioid (DOP) (Homo sapiens, UniProt P41143); experiment: Radioligand binding, human δ-opioid (DOP) membranes, FlashPlate, [3H]-Bremazocine; settings: compound at 10 μM, [3H]-Bremazocine; for A1: inhibition of radioligand binding: human DOP membranes
T9 construct: purchased Perkin Elmer Biosignal
T9 sequence (P41143 whole entry): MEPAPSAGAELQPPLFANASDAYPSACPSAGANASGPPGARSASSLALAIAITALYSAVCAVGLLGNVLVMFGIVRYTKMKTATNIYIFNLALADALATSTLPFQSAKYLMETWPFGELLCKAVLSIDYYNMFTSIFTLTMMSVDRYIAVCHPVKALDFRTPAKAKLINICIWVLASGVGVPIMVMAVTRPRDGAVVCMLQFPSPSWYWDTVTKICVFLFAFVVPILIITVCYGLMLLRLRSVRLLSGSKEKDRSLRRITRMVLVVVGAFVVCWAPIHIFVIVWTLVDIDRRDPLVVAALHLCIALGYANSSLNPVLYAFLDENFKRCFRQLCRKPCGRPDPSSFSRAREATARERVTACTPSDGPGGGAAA
In short: as §1

[10] = target: T10, Mouse urotensin (mUR2) (Mus musculus, UniProt Q8VIH9); experiment: Radioligand binding, mouse urotensin mUR2 membranes, FlashPlate, [125I]-Urotensin II; settings: compound at 10 μM, [125I]-Urotensin II; for A11: inhibition of radioligand binding: mouse mUR2 membranes
T10 construct: purchased Perkin Elmer Biosignal
T10 sequence (Q8VIH9 1-385): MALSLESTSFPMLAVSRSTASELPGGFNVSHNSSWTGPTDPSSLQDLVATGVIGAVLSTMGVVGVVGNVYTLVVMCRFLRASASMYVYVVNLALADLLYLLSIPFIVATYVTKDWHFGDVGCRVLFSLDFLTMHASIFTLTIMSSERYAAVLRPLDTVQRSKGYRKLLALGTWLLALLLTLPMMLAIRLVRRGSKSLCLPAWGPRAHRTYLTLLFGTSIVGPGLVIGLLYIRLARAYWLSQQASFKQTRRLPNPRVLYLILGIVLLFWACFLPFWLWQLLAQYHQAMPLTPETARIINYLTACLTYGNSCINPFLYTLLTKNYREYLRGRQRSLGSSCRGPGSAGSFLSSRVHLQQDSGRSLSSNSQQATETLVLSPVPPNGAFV
In short: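 Cloned mouse urotensin (mUR2) receptor membranes from Perkin Elmer Biosignal were immobilized in FlashPlate microplates using a proprietary coating. Each well got 19.5 μl buffer, then 0.5 μl of DMSO, reference ligand, or compound. Adding 5 μl of [125I]-Urotensin II, diluted to 5× final concentration in binding buffer, started binding. Plates were sealed with TopSeal-A and incubated 1 hour at room temperature in the dark. Wells were counted for 30 seconds each on a TopCount after a 60-second delay, and percentage inhibition was calculated.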

[11] = target: T11, Human μ-opioid (MOP) (Homo sapiens, UniProt P35372); experiment: Radioligand binding, human μ-opioid (MOP) membranes, FlashPlate, [3H]-Naloxone; settings: compound at 10 μM, [3H]-Naloxone; for A7: inhibition of radioligand binding: human MOP membranes
T11 construct: purchased Perkin Elmer Biosignal
T11 sequence (P35372 whole entry): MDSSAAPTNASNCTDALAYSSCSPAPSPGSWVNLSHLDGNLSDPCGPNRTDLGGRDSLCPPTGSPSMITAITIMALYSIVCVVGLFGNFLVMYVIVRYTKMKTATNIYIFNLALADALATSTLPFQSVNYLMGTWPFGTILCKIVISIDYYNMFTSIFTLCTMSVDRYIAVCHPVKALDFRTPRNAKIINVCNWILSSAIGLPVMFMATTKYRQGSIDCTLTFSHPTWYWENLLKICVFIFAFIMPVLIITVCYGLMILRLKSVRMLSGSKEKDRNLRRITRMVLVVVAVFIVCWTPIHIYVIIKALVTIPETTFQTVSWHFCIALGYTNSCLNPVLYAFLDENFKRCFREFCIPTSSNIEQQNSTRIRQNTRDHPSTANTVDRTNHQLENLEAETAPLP
In short: as §1

T1 sequence (P41146 whole entry): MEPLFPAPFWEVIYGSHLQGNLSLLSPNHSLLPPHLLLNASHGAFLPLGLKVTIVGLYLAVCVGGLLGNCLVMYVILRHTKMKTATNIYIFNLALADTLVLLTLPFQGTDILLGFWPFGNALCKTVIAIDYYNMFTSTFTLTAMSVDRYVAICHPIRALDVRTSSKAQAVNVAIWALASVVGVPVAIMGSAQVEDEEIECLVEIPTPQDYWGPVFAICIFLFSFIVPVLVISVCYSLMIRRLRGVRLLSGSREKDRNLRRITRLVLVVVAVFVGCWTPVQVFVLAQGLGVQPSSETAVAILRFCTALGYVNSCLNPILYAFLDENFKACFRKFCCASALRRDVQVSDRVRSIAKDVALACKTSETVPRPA

Compound	A10: inhibition of radioligand binding [1]	A2: inhibition of radioligand binding [2]	A5: inhibition of radioligand binding [4]	A3: inhibition of radioligand binding [5]	A9: inhibition of radioligand binding [6]	A6: inhibition of radioligand binding ([7]; 10 µM)	A8: inhibition of radioligand binding [8]	A1: inhibition of radioligand binding [9]	A11: inhibition of radioligand binding [10]	A7: inhibition of radioligand binding [11]	A10: inhibition of radioligand binding ([1]; 10 µM)	A4: inhibition of radioligand binding [3]	A5: inhibition of radioligand binding ([4]; 10 µM)	A7: inhibition of radioligand binding ([11]; 10 µM)	further results
NCCC(=O)NC1C(OCc2ccc(Cl)cc2)OC(COCc2ccc3ccccc3c2)C(O)C1OCc1ccc(Cl)cc1 (single isomer, unassigned) [compound 472]	− (“−” indicates less than 50% inhibition at 10 μM)	− (“−” indicates less than 50% inhibition at 10 μM)	+ (“+” indicates greater than 50% inhibition at 10 μM)	+ (“+” indicates greater than 50% inhibition at 10 μM)	− (“−” indicates less than 50% inhibition at 10 μM)	+ (“+” indicates greater than 50% inhibition at 10 μM)	+ (“+” indicates greater than 50% inhibition at 10 μM)	− (“−” indicates less than 50% inhibition at 10 μM)	− (“−” indicates less than 50% inhibition at 10 μM)	− (“−” indicates less than 50% inhibition at 10 μM)					A4: inhibition of radioligand binding ([3]; 10 µM): + (“+” indicates greater than 50% inhibition at 10 μM)
NCCC(=O)NC1C(OCc2ccc(Cl)cc2)OC(COCc2ccccc2)C(O)C1OCc1ccc(Cl)cc1 (single isomer, unassigned) [compound 473]		− (“−” indicates less than 50% inhibition at 10 μM)		− (“−” indicates less than 50% inhibition at 10 μM)	− (“−” indicates less than 50% inhibition at 10 μM)	+ (“+” indicates greater than 50% inhibition at 10 μM)	+ (“+” indicates greater than 50% inhibition at 10 μM)	− (“−” indicates less than 50% inhibition at 10 μM)	− (“−” indicates less than 50% inhibition at 10 μM)		− (“−” indicates less than 50% inhibition at 10 μM)	− (“−” indicates less than 50% inhibition at 10 μM)	+ (“+” indicates greater than 50% inhibition at 10 μM)	+ (“+” indicates greater than 50% inhibition at 10 μM)	
NCCC(=O)NC1C(OCc2ccc(Cl)cc2)OC(COCc2ccccc2)C(O)C1OCc1ccc(Cl)cc1 (single isomer, unassigned) [compound 474]		− (“−” indicates less than 50% inhibition at 10 μM)		− (“−” indicates less than 50% inhibition at 10 μM)	− (“−” indicates less than 50% inhibition at 10 μM)	− (“−” indicates less than 50% inhibition at 10 μM)	+ (“+” indicates greater than 50% inhibition at 10 μM)	− (“−” indicates less than 50% inhibition at 10 μM)	− (“−” indicates less than 50% inhibition at 10 μM)		+ (“+” indicates greater than 50% inhibition at 10 μM)	− (“−” indicates less than 50% inhibition at 10 μM)	− (“−” indicates less than 50% inhibition at 10 μM)	− (“−” indicates less than 50% inhibition at 10 μM)	
NCCC(=O)NC1C(OCc2ccc(Cl)cc2)OC(COCc2ccc(Cl)cc2)C(O)C1OCc1ccc(Cl)cc1 (single isomer, unassigned) [compound 475]	− (“−” indicates less than 50% inhibition at 10 μM)	− (“−” indicates less than 50% inhibition at 10 μM)	+ (“+” indicates greater than 50% inhibition at 10 μM)	− (“−” indicates less than 50% inhibition at 10 μM)	− (“−” indicates less than 50% inhibition at 10 μM)		+ (“+” indicates greater than 50% inhibition at 10 μM)	− (“−” indicates less than 50% inhibition at 10 μM)	− (“−” indicates less than 50% inhibition at 10 μM)	− (“−” indicates less than 50% inhibition at 10 μM)		+ (“+” indicates greater than 50% inhibition at 10 μM)			A6: inhibition of radioligand binding [7]: − (“−” indicates less than 50% inhibition at 10 μM)
NCCC(=O)NC1C(OCc2ccc(Cl)cc2)OC(COCc2ccc(Cl)cc2)C(O)C1OCc1ccc(Cl)cc1 (single isomer, unassigned) [compound 476]															A10: inhibition of radioligand binding, human opioid (ORL1) [1]: + (“+” indicates greater than 50% inhibition at 10 μM); A2: inhibition of radioligand binding, human κ-opioid (KOP) [2]: − (“−” indicates less than 50% inhibition at 10 μM); A4: inhibition of radioligand binding, human melanocortin (MC4) [3]: + (“+” indicates greater than 50% inhibition at 10 μM); A5: inhibition of radioligand binding, human melanocortin (MC5) [4]: + (“+” indicates greater than 50% inhibition at 10 μM); A3: inhibition of radioligand binding, human melanocortin (MC3) [5]: + (“+” indicates greater than 50% inhibition at 10 μM); A9: inhibition of radioligand binding, human neuropeptide Y (NPY-Y1) [6]: − (“−” indicates less than 50% inhibition at 10 μM); A6: inhibition of radioligand binding, human melanin-concentrating hormone (MCH1) ([7]; [125I]-S36057): + (“+” indicates greater than 50% inhibition at 10 μM); A8: inhibition of radioligand binding, human neurokinin (NK1) [8]: + (“+” indicates greater than 50% inhibition at 10 μM); A1: inhibition of radioligand binding, human δ-opioid (DOP) [9]: − (“−” indicates less than 50% inhibition at 10 μM); A11: inhibition of radioligand binding, mouse urotensin (mUR2) [10]: − (“−” indicates less than 50% inhibition at 10 μM); A7: inhibition of radioligand binding, human μ-opioid (MOP) [11]: + (“+” indicates greater than 50% inhibition at 10 μM)
